# Results published in US5674886A, “Triazolylated teritiary amine compound or salt thereof” (Yamanouchi Pharmaceutical Co., Ltd., priority 1991, dated 1997).
# Assays:
# [1] = biological target: T1, aromatase from human placental microsomes (Homo sapiens, UniProt P11511); assay: In vitro inhibition of aromatase in human placenta microsomes; assay type: biochemical; settings: [1,2-3H] androstenedione
# T1 construct: in human placenta microsomes; from tissue; host or cells: human placenta, microsomes
# T1 sequence (P11511 1-503): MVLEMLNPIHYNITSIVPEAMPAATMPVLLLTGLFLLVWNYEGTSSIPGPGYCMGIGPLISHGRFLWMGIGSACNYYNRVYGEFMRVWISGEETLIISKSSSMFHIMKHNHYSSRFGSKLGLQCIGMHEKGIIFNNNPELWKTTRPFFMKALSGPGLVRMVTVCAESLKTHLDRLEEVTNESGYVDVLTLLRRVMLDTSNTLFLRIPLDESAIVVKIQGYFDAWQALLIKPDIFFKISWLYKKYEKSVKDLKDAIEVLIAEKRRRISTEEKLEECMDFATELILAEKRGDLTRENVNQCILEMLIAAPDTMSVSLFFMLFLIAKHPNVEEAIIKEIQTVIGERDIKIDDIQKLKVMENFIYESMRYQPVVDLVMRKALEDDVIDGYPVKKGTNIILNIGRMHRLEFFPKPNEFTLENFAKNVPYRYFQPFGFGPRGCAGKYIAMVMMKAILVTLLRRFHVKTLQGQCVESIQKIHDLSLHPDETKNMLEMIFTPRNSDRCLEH
# Protocol: (b) Inhibition of aromatase obtained from human placenta
# The activity was measured in accordance with the method described in Endocrine Research, 16 (2) 253 (1990).
# The inhibition activity of the compound was determined based on the inhibition of ^3 H2 O to be released from [1,2-^3 H] androstenedione in human placenta microsomes.
# 1. In vitro inhibition of aromatase in human placenta microsomes:
# IC50 value for ex vivo inhibition of aromatase from human placental microsomes was obtained in accordance with the above-mentioned experimental method (1-b), and the results obtained are shown in Table 1.
# [2] = tested on: aldosterone production; assay: In vivo inhibition of aldosterone production in rats (ACTH-stimulated blood aldosterone); parameters: species or system rat; settings: 100 mg/kg, five rats, one-way ANOVA
# Protocol: (b) In vivo inhibition of aldosterone production in rats:
# The inhibitory activity was measured in accordance with the method described in J. Steroid Biochem., 34 567 (1989). The inhibitory activity of a test compound was determined based on inhibition of the blood aldosterone to be increased by stimulation by ACTH in rats. The amount of aldosterone was measured by RIA.
# 3. In vivo inhibition of aldosterone production in rats:
# By the above-mentioned experimental method (4-b), aldosterone production inhibitory activity in rats was measured.
# The statistical significance of value was analyzed by using one-way ANOVA. The results mean that the compounds of the present invention are highly safe compounds with few harmful side effects also in the in vivo test as well.
# [3] = tested on: cortisol production, rabbit adrenal cultured cells; assay: In vitro inhibition of cortisol production (ACTH-stimulated rabbit adrenal cultured cells); assay type: cell-based; settings: Oryctolagus cuniculus
# Protocol: (5) In vitro inhibition of cortisol production:
# The inhibitory activity was measured in accordance with the method described in Endocrinology, 114 (2) 486 (1984). The inhibitory activity of a test compound was determined based on inhibition of the cortisol production produced by stimulation of first-generation of rabit adrenal cultured cells by ACTH. The amount of cortisol was measured by RIA.
# 4. In vitro inhibition of cortisol production in rabbit:
# IC50 value of the compounds for in vitro inhibition of cortisol production was obtained by the above-mentioned experimental method (5), and the results obtained are shown in Table 3.
# [4] = biological target: T2, rat aromatase (rat ovarian microsomes) (Rattus norvegicus, UniProt P22443); assay: In vitro inhibition of aromatase obtained from rat ovary; assay type: biochemical
# T2 construct: in rat ovarian microsomes; from tissue; host or cells: rat ovary, microsomes
# T2 sequence (P22443 1-508): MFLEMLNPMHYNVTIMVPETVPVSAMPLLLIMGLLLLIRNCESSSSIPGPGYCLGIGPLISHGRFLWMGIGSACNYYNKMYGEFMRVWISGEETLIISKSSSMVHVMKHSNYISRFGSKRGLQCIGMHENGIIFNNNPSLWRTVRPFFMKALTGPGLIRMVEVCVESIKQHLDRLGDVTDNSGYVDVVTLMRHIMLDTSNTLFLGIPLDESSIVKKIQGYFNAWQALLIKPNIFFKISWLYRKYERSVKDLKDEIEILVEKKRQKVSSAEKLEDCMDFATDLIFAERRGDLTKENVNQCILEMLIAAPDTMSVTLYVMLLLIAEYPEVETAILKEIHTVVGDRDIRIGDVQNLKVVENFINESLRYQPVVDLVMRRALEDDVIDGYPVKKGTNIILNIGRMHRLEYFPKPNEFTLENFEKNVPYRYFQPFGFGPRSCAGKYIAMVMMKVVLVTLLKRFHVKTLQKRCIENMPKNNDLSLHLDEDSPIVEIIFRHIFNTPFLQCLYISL
# Protocol: (a) Inhibition of aromatase obtained from rat ovary:
# The activity was measured in accordance with the method described in J. Biol. Chem., 249 5364 (1974).
# The IC50 value of the test compound on aromatase inhibition was determined based on inhibition of ^3 H2 O to be released from [1,2-^3 H] androstenedione in rat ovarian microsomes.
# (§1) 2. Selectivity of In vitro inhibition of rat ovarian aromatase and in vitro aldosterone production in rat:
# (§2) IC50 values for in vitro inhibition of rat aromatase and […] inhibition of rat aldosterone production were measured in accordance with the above-mentioned experimental methods (1-a) and (4-a), respectively. The selectivity indicates a ratio of IC50 value for rat aldosterone production to IC50 value for rat aromatase.
# [5] = tested on: aldosterone production, rat adrenal cultured cells; assay: In vitro inhibition of aldosterone production (ACTH-stimulated rat adrenal cultured cells); assay type: cell-based; settings: read-out: IC50, Rat aldosterone inhibitory activity (B)
# Protocol: (a) In vitro inhibition of aldosterone production:
# The activity was measured in accordance with the method described in J. Vet. Pharmacol. Therap., 11 345 (1988). The inhibition activity of the test compound was determined based on the inhibition of aldosterone production produced by stimulation of first-generation of rat adrenal cultured cells by ACTH. The amount of aldosterone was measured by RIA.
# as §1, §2
# [6] = Metabolism: plasma concentration of the non-changed compound after oral administration to rats; assay type: in vivo; settings: rat, 3 mg/kg oral
# From the text: From the results, it is understood that the compound of the present invention has an excellent oral absorbability and that the effect of the absorbed compound lasts long. Thus, the compound has a good profile as a medicine.
IC50 [1],"IC50 ([4]; rat ovarian microsomes, in vitro, read-out: IC50, Rat aromatase inhibitory activity (A))",Selectivity (B/A) ([4]; ratio of IC50 for rat aldosterone production to IC50 for rat aromatase),IC50 [5],half-life ([6]; read-out: extinction half time (T1/2) (converted)),Cmax ([6]; read-out: maximum value (Cmax) of the concentration of the non-changed compound in the plasma),Compound,inhibition of aldosterone production in rats (significance) [2],IC50 [3]
0.03 nM,–,–,–,–,–,"O=[N+]([O-])c1ccc(N(Cc2ccc(Br)cc2)n2cnnc2)cc1 [Example 12, 4-[N-(4-bromobenzyl)-N-(4-nitrophenyl)amino]-4H-1,2,4-triazole]",did not inhibit aldosterone production significantly,–
0.13 nM,0.37 nM,6100,2250 nM,11 h,2880 ng/mL,"N#Cc1ccc(N(Cc2ccc(Br)cc2)n2cnnc2)cc1 [Example 15, 4-[N-(4-bromobenzyl)-N-(4-cyanophenyl)amino]-4H-1,2,4-triazole]",did not inhibit aldosterone production significantly,4000 nM

Compound,IC50 [1],"IC50 ([4]; rat ovarian microsomes, in vitro, read-out: IC50, Rat aromatase inhibitory activity (A))",Selectivity (B/A) ([4]; ratio of IC50 for rat aldosterone production to IC50 for rat aromatase),IC50 [5],half-life ([6]; read-out: extinction half time (T1/2) (converted)),Cmax ([6]; read-out: maximum value (Cmax) of the concentration of the non-changed compound in the plasma),inhibition of aldosterone production in rats (significance) [2],IC50 [3]
"O=[N+]([O-])c1ccc(CN(c2ccc([N+](=O)[O-])cc2)n2cnnc2)cc1 [Example 10, 4-[N-(4-nitrobenzyl)-N-(4-nitrophenyl)amino]-4H-1,2,4-triazole]",0.11 nM,–,–,–,–,–,did not inhibit aldosterone production significantly,7000 nM
